Patent US5773228A, “Activation-dependent protein expressed on the surface of activated platelets and antibodies thereto” (The General Hospital Corporation, priority 1995, dated 1998)

Test system: platelets (TAPP-2 expression)
Assay: Expression of TAPP-2 on platelets stimulated by different agonists (binding of 125I-MAb 12A7)
Type: cell-based, rabbit
Conditions: compared to resting platelets, 10 minutes at room temperature
Experimental: Platelets were incubated with various agonists, with or without Ca^2+ or EDTA and then fixed by paraformaldehyde. The fixed platelets were washed and incubated with ^125 I-MAb 12A7 (50,000 cpm), with or without unlabeled MAb 12A7 (0.5 ug) added as an inhibitor to estimate nonspecific binding. After 45 min. the platelet samples were again washed, spun, and aspirated. The platelet pellet was counted to determine the amount of bound MAb 12A7.
Equilibrium saturation binding studies were conducted in a similar manner. Platelets activated by thrombin (0.15 U/ml) were incubated in duplicate with various amounts of ^125 I-MAb 12A7 (1,000,000 to 6,250 cpm) in a total volume of 200 μl. Each tube also contained a molar excess (>100-fold) of a control, anti-digoxin MAb, of the same isotype (Mudgett-Hunter et al., Mol. Immunol. 22:477-488 (1985)), which was added to inhibit nonspecific binding of ^125 I-MAb 12A7 to platelets via Fc receptors. To estimate nonspecific binding, a molar excess (>100-fold) of nonradioactive MAb 12A7 was added to one set of tubes. After incubation for 45 minutes at room temperature 2 ml of cold Tyrode's buffer was added, the tubes were centrifuged at 3000 ×g for 10 minutes and the unbound ^125 I-12A7 MAb was removed. The bound antibody was measured by gamma counting in Micro-Medics 4/600 counter. To study the binding of MAb 12A7 to resting platelets a similar procedure was performed except that the number of platelets had to be increased to 1.29×10^8 cells in a total incubation volume of 400 μl. The platelets were incubated with various amounts of MAb 12A7 (2,000,000 to 25,000 cpm) as above. The binding data was analyzed by the Ligand program of Munson and Rodbard, Anal. Biochem. 107:220-239 (1980)). […] The binding of 12A7 to platelets stimulated by different agonists was also studied. Platelets were isolated as described above. Platelets (5×10^6 cells/40 Kl) in modified Tyrode's (without divalent cations) were added to plastic tubes. […] After 45 minutes the platelet samples were again washed, spun, aspirated and gamma-counted.

For Nc1ncnc2c1ncn2[C@@H]1O[C@H](COP(=O)(O)OP(=O)(O)O)[C@@H](O)[C@H]1O [ADP], which “TAPP-2 expression as indicated by the binding of 125I-MAb 12A7” value (“TAPP-2 expression as indicated” below) (ADP 10 μM) is on record?
The value was “notable increase”.

How did the “TAPP-2 expression as indicated” value (epinephrine 2 μM) turn out when CNC[C@H](O)c1ccc(O)c(O)c1 [epinephrine] was run?
Its value is “little, if any, effect”.

CNc1ccc2oc(C[C@H]3O[C@@]4(CC[C@H]3C)O[C@H]([C@H](C)C(=O)c3ccc[nH]3)[C@H](C)C[C@H]4C)nc2c1C(=O)O [A23187] was tested. Which “TAPP-2 expression as indicated” value (A23187 2 μM) did it give?
The value was “notable increase”.
